# Data: US5026836A, “6-sulfenamide, 6-sulfinamide and 6-sulfonamide purines, purine nucleosides, purine nucleotides, pharmaceutical compositions, and processes of making” (priority 1988, dated 1991)
# Starred links: 1 amine or outer side, 2 acyl side, 3 side chain; linkers in the order of their positions; H or OH if unused. Positions of bridges follow the written chain, without caps; N, C: chain ends. Non-standard residues stand in square brackets, D forms with d. Residues, ends and D or L forms follow the SMILES beside them. Chains are numbered I, II in the order given. Actinocin(9to1) = Cc1c2oc3c(C)ccc(C(=O)[*:1])c3nc-2c(C(=O)[*:2])c(N)c1=O; NMeV = CN[C@H](C(=O)O)C(C)C; Sar = CNCC(=O)O
# Experiments:
# [1] = system: L1210 cells; test: Life span of BDF1 mice inoculated ip with 10^6 L1210 leukemia cells; assay type: in vivo, mouse; details: for T/C (%): ip day 1, Enantiomer A 37 mg/kg, Enantiomer B 173 mg/kg; for relative activity of the two enantiomers (words): mouse, in vivo; for Increased life span: qd days 1,3,5,7; for T/C: single QD day 1 ip (Table 14-b)
# Description: As illustrative examples of use of the compounds of the invention the following examples are given. […] These standard tests utilize protocols developed under the auspices of the Developmental Therapeutics Program, Division of Cancer Treatment, National Cancer Institute, Bethesda, Md., U.S.A. Except as otherwise indicated the tests conform to these protocols and are evaluated utilizing criteria defined by the protocols.
# (§1) Values below 25% are considered capable of producing effective therapy, those below 10% are considered good and those below 5% are considered very good. This expresses the percent of the cells which survived treatment based upon the original cells in the inoculum. Those tests expressed as increases in life span (% ILS) indicate the increased life span of the drug treated group compared to a control group.
# As an indicator of reproducible activity, compounds of the invention and other known cancer chemotherapeutic agents were screened against L1210 lymphoid leukemia in vivo utilizing the mouse as a test species. Normal NCI protocols for this test require 10^5 seed cells of the L1210 cell line.
# Cytosine Arabinoside must be given every three hours.
# Mice were inoculated intraperitoneally on day 0 with a million cells of murine leukemia L1210. Drug was given qd days 1, 4 and 7. Increased life span is the mean increase in the treated group presented as a percentage of the mean life span of control mice.
# Mice were inoculated intraperitoneally on day 0 with a million cells of murine leukemia L1210. Drugs were given qd days 1, 3, 5 and 7. Increased life span is presented as a percentage of the mean life span of control mice.
# [2] = system: L1210 cells; test: L1210 cells surviving treatment (% of original inoculum); assay type: in vivo, mouse; details: for L1210 cells surviving treatment (% of original inoculum): ip day 1, Enantiomer A 37 mg/kg, Enantiomer B 173 mg/kg
# Source text: as §1
# As an indicator of reproducible activity, compounds of the invention and other known cancer chemotherapeutic agents were screened against L1210 lymphoid leukemia in vivo utilizing the mouse as a test species. Normal NCI protocols for this test require 10^5 seed cells of the L1210 cell line. However for the purposes of tests with the L1210 cell line in testing the compounds of the invention for antitumor activity, a log greater, i.e. 10^6 cells were utilized.
# Tables 2-a and 2-b illustrate a dose response for Compound 19 against L1210 inoculated mice expressed as both increased life span compared to control and as the number of cells of the original inoculum surviving drug treatment. As is evident from the various regimens of drug treatment shown in Tables 2-a and 2-b, effective therapeutic effects are noted and a dose response to Compound 19 is evident. […] Cytosine Arabinoside must be given every three hours. Test results are given utilizing standard protocols based on mean survival time and are expressed as T/C percentages (treated animals/control animals).
# [3] = Solubility (maximum solubility); assay type: physicochemical
# [4] = system: Human Colon Adenocarcinoma CX-1; details: data from Goldin et al 1981; activity indicated at ≤20; cited from earlier work
# [5] = system: L1210 cells; test: Bioassay of viable L1210 cells in brain after intracranial inoculation and ip drug; assay type: in vivo, mouse; details: 24 hr after single ip dose (mg/kg): Methotrexate 12, Adriamycin 3, 6-Mercaptopurine 160, Cytosine Arabinoside 1200, Cyclophosphamide 140, Compound 19 173, Tiazofurin 1200, BCNU 20
# Source text: BDF1 mice were inoculated intracranially on day 0 with 1×10^5 L1210 cells. […] 24 hr after drug delivery the brains were collected, homogenized, and injected ip into untreated mice. Each mouse received the equivalent of half a brain. Thereafter, life span was monitored and, using inoculum-response data as a base of comparison, estimates were made of the numbers of viable cells in treated and control brains.
compound,measurement,setting,value
"Nc1nc([S+](N)[O-])c2ncn([C@@H]3O[C@H](CO)[C@@H](O)[C@H]3O)c2n1 (single isomer, unassigned) [Enantiomer A]",% ILS,"[1]; 37 mg/kg/inj bid day 1, total A 70.94, B 1.26, contaminant 1.80 mg/kg",44%
same,% ILS,"[1]; 37 mg/kg/inj printed qid day 1, total A 177.35, B 3.15, contaminant 4.50 mg/kg",0%
same,% ILS,"[1]; 37 mg/kg/inj qd day 1, total A 35.47, B 0.63, contaminant 0.90 mg/kg",22%
same,% ILS,"[1]; 37 mg/kg/inj qid day 1, total A 141.88, B 2.52, contaminant 3.60 mg/kg",72%
same,% ILS,"[1]; 37 mg/kg/inj tid day 1, total A 106.41, B 1.89, contaminant 2.70 mg/kg",72%
same,T/C (%),[1],108.7%
same,relative activity of the two enantiomers (words),[1],greater activity with respect to enantiomer B because of solubility differences
same,relative activity of the two enantiomers (words),[1]; listed as enantiomer A,comparable activity
same,Cells surviving treatment (% of original inoc.),"[2]; 37 mg/kg/inj bid day 1, total A 70.94 mg/kg",10%
same,Cells surviving treatment (% of original inoc.),"[2]; 37 mg/kg/inj qd day 1, total A 35.47 mg/kg",64%
same,Cells surviving treatment (% of original inoc.),"[2]; 37 mg/kg/inj qid day 1, total A 141.88 mg/kg",1%
same,Cells surviving treatment (% of original inoc.),"[2]; 37 mg/kg/inj tid day 1, total A 106.41 mg/kg",1%
same,L1210 cells surviving treatment (% of original inoculum),[2],182.8%
same,solubility,[3],about 3.7 mg per ml
"Nc1nc([S+](N)[O-])c2ncn([C@@H]3O[C@H](CO)[C@@H](O)[C@H]3O)c2n1 (single isomer, unassigned) [Enantiomer B]",T/C (%),[1],144.9%
same,relative activity of the two enantiomers (words),[1],comparable activity
same,L1210 cells surviving treatment (% of original inoculum),[2],7.5%
same,solubility,[3],about 17.3 mg per ml
O=c1[nH]cc(F)c(=O)[nH]1 [5-Fluorouracil],Activity rating δT/δC,[4],88
Nc1nc2nc[nH]c2c(=S)[nH]1 [6-Thioguanine],Activity rating δT/δC,[4],81
"Nc1nc2c(ncn2[C@@H]2O[C@H](CO)[C@@H](O)[C@H]2O)c(=S)[nH]1 [6-Thioguanosine, reference compound]",Increased life span,[1]; 8.1 mg/kg/inj injected,48%
same,Increased life span,[1]; 13 mg/kg/inj injected,38%
same,Increased life span,[1]; 22 mg/kg/inj injected,42%
same,Increased life span,[1]; 37 mg/kg/inj injected,45%
same,Increased life span,[1]; 62 mg/kg/inj injected,42%
same,Increased life span,[1]; 104 mg/kg/inj injected,42%
same,Increased life span,[1]; 173 mg/kg/inj injected,52%
"Cc1c2oc3c(C)ccc(C(=O)N[C@@H]4C(=O)N[C@H](C(C)C)C(=O)N5CCC[C@H]5C(=O)N(C)CC(=O)N(C)[C@@H](C(C)C)C(=O)O[C@@H]4C)c3nc-2c(C(=O)N[C@@H]2C(=O)N[C@H](C(C)C)C(=O)N3CCC[C@H]3C(=O)N(C)CC(=O)N(C)[C@@H](C(C)C)C(=O)O[C@@H]2C)c(N)c1=O [Actinomycin D] (I: T[dV]P[Sar][NMeV] / II: T[dV]P[Sar][NMeV]; ester I:1-I:C, II:1-II:C; linker I:N-II:N via Actinocin(9to1))",Activity rating δT/δC,[4],73
"COc1cccc2c1C(=O)c1c(O)c3c(c(O)c1C2=O)C[C@@](O)(C(=O)CO)C[C@@H]3O[C@H]1C[C@H](N)[C@H](O)[C@H](C)O1 [Adriamycin, reference compound]",Residual cells (% of control brain),[5],89.5%
same,Activity rating δT/δC,[4],72
"O=NN(CCCl)C(=O)NCCCl [BCNU, reference compound]",Residual cells (% of control brain),[5],1.6%
same,Activity rating δT/δC,[4],63
O=NN(CCCl)C(=O)NC1CCCCC1 [CCNU],Activity rating δT/δC,[4],77
O=C(O)CCCc1ccc(N(CCCl)CCCl)cc1 [Chlorambucil],Activity rating δT/δC,[4],60
O=NN(CCCl)C(=O)N[C@H]1C(O)O[C@H](CO)[C@@H](O)[C@@H]1O (stereo partly shown) [Chlorozotocin],Activity rating δT/δC,[4],75
N.N.[Cl][Pt][Cl] [Cis-Platinum],Activity rating δT/δC,[4],66
"C[C@H]1O[C@@H](n2cnc3c([S+](N)[O-])nc(N)nc32)[C@H](O)[C@@H]1O (stereo partly drawn) [Compound 42, 2-Amino-9-(5-deoxy-β-D-ribofuranosyl)-9H-purine-6-sulfinamide]",T/C,[1]; NaOH vehicle,172
same,Max. sol. dosage,[3],104 mg/kg
"C[C@H]1O[C@@H](n2cnc3c(S(N)(=O)=O)nc(N)nc32)[C@H](O)[C@@H]1O [Compound 43, 2-Amino-9-(5-deoxy-β-D-ribofuranosyl)-9H-purine-6-sulfonamide]",T/C,[1],130
same,Max. sol. dosage,[3],480 mg/kg
"NSc1nc(N)nc2c1ncn2[C@H]1C[C@H](O)[C@@H](CO)O1 [Compound 45, 2-Amino-9-(2-deoxy-β-D-erythro-pentofuranosyl)-9H-purine-6-sulfenamide]",T/C,[1],172
same,Max. sol. dosage,[3],480 mg/kg
"Nc1nc([S+](N)[O-])c2ncn([C@@H]3O[C@H](CO)[C@@H](O)[C@@H]3O)c2n1 (stereo partly drawn) [Compound 50, 2-Amino-9-β-D-arabinofuranosyl-9H-purine-6-sulfinamide]",T/C,[1],140
same,Max. sol. dosage,[3],800 mg/kg
"NS(=O)(=O)c1ncnc2c1ccn2[C@H]1C[C@H](O)[C@@H](CO)O1 [Compound 55, 7-(2-Deoxy-β-D-erythro-pentofuranosyl)pyrrolo[2,3-d]-pyrimidine-4-sulfonamide]",T/C,[1],125
same,Max. sol. dosage,[3],288 mg/kg
"O=P1(N(CCCl)CCCl)NCCCO1 (stereo not shown) [Cyclophosphamide, reference compound]",Residual cells (% of control brain),[5],11.5%
same,Activity rating δT/δC,[4],113
CN(C)/N=N/c1[nH]cnc1C(N)=O [DTIC],Activity rating δT/δC,[4],92
CN(C)c1nc(N(C)C)nc(N(C)C)n1 [Hexamethylmelamine],Activity rating δT/δC,[4],85
N[C@@H](Cc1ccc(N(CCCl)CCCl)cc1)C(=O)O [Melphalan],Activity rating δT/δC,[4],101
"CN(Cc1cnc2nc(N)nc(N)c2n1)c1ccc(C(=O)N[C@@H](CCC(=O)O)C(=O)O)cc1 [Methotrexate, reference compound]",Residual cells (% of control brain),[5],97%
same,Activity rating δT/δC,[4],66
CC1CCC(NC(=O)N(CCCl)N=O)CC1 (stereo not shown) [Methyl CCNU],Activity rating δT/δC,[4],83
CO[C@@]12[C@H](COC(N)=O)C3=C(C(=O)C(C)=C(N)C3=O)N1C[C@@H]1N[C@@H]12 [Mitomycin C],Activity rating δT/δC,[4],62
CNNCc1ccc(C(=O)NC(C)C)cc1 [Procarbazine],Activity rating δT/δC,[4],60
"NC(=O)c1csc([C@@H]2O[C@H](CO)[C@@H](O)[C@H]2O)n1 [Tiazofurin, reference compound]",% ILS,"[1]; single agent day 1, Compound 19 173 mg/kg, Tiazofurin 22 mg/kg (Table 13)",44%
same,Residual cells (% of control brain),[5],2.9%
CC[C@]1(O)C[C@@H]2CN(CCc3c([nH]c4ccccc34)[C@@](C(=O)OC)(c3cc4c(cc3OC)N(C)[C@H]3[C@@](O)(C(=O)OC)[C@H](OC(C)=O)[C@]5(CC)C=CCN6CC[C@]43[C@@H]65)C2)C1 [Vinblastine],Activity rating δT/δC,[4],119
CC[C@]1(O)C[C@H]2CN(CCc3c([nH]c4ccccc34)[C@@](C(=O)OC)(c3cc4c(cc3OC)N(C=O)[C@H]3[C@@](O)(C(=O)OC)[C@H](OC(C)=O)[C@]5(CC)C=CCN6CC[C@]43[C@@H]65)C2)C1 [Vincristine],Activity rating δT/δC,[4],89
Bleomycin,Activity rating δT/δC,[4],51
